# Legend:
# Format in all cases: cell-based, human
# HeLa cells = assay: HDAC Fluorescent Activity Assay (Fluor de Lys) in HeLa cells; conditions: 300 nM
# Experimental: (§1) The HDAC Fluorescent Activity Assay (Enzo Life Science, Farmingdale, NY) was used to measure HDAC inhibition in HeLa cells in a 96-well format using Trichostatin A as the positive control per the manufacturer's protocol. This assay is based on the Fluor de Lys (Fluorogenic Histone Deacetylase Lysyl (FDL)) Substrate/Developer. The procedure was as follows: the test compounds FK228, JMA26, and JMA33 were added to HeLa cells along with the FDL substrate to allow intracellular drug activation then fluorescence levels were read on the fluorometer at 440 nm (CytoFluor II, PerSeptive Biosystems, Farmingdale, NY). The drug concentrations tested were based on the amount required for HbF induction in primary cells. Data was reported as the mean ± standard deviation (SD) for at least five replicates.
# (§2) To ascertain the mechanism of HbF induction by the lead compounds, we performed an in vivo assay to investigate the ability of JMA26 and JMA33 to act as HDAC inhibitors. The HDAC Fluorescent Activity Assay designed to measure HDAC activity in HeLa cells was completed in a 96-well format. The assay is based on the fact that the Fluor de Lys substrate is deacetylated by HDACs to generate a fluorescent readout. TSA (0.5 to 1000 nM) was used to establish the assay in HeLa cells, showing about 80% HDAC inhibition in our system (Figure 4(a)).
# (§3) Figure 4 HDAC inhibition assay. The HDAC Fluorescent Activity Assay was used to measure HDAC inhibition in HeLa cells (See Section 2). Compounds and FDL substrate were added to HeLa cells to allow drug activation in vivo then fluorescence levels were quantified on the fluorometer at 440 nm. (a) Trichostatin A (TSA) was used as the control. (b) Inhibition studies were conducted for FK228 showing maximal HDAC inhibition at the 300 nM concentration. (c) Similar studies were performed for JMA33 and JMA26. The data are reported as the means ± SEM.
# [1] = system: HDAC activity in HeLa cells; assay: as above; conditions: 300 nM; HeLa cells, Fluor de Lys substrate; maximal inhibition
# Experimental: as §1, §2, §3
# [2] = system: γ-globin transcription in primary erythroid progenitors; assay: RT-qPCR of γ-globin mRNA in primary erythroid progenitors (two-phase liquid culture); conditions: Day 11 erythroid progenitors treated 48 hr (Figure 3 legend), untreated normalized to one
# Experimental: (§4) The two-phase liquid culture system was established as previously published by Fibach et al. using buffy coat mononuclear cells, purchased from Carter Blood Care (Fort Worth, TX) in accordance with the guidelines of the Institutional Review Board at the University of Texas at Dallas. During phase 1, cells were grown in IMDM medium with 30% fetal bovine serum and 50 ng/mL each of the granulocyte-monocyte colony-stimulating factor, Interleukin-3, and stem cell factor. Subsequently, phase 2 was initiated on day 7 with the addition of erythropoietin (2 U/mL) and stem cell factor (50 ng/mL). The cells were treated on Day 11 with the different test compounds and harvested on Day 14 (72 hr incubation).
# Total RNA was isolated from samples using RNA Stat-60 (TEL-TEST “B” Inc., Friendswood, TX) and used for RT-qPCR analysis as previously published. […] The globin mRNA levels were calculated as a ratio of GAPDH (γ/GAPDH, β/GAPDH), and the γ/β-globin mRNA ratio was calculated by dividing γ/GAPDH by β/GAPDH.
# Figure 3 JMA33 and JMA26 induce HbF in primary erythroid cells. (a) Day 11 erythroid progenitors were treated for 48 hr with the controls agents and the FK228 analogues shown and then analyzed by RT-qPCR. […] Data were calculated as the means ± SEM. […] The images generated were used to count 500 DAPI positive cells and the %FITC positive cells were calculated accordingly.
# [3] = system: HbF-positive primary erythroid progenitors; assay: Anti-HbF FITC immunostaining of primary erythroid progenitors; conditions: anti-HbF FITC / DAPI, 500 cells counted; 15.5% HbF-positive at baseline in untreated cells
# Experimental: as §4
# Primary erythroid progenitor cytospin cell preparations were fixed with 4% paraformaldehyde in phosphate buffered saline for 15 min, washed, and then permeabilized with 0.3% Trition-100 solution for 10 min. Cells were then blocked in a 5% bovine serum albumin solution and immunostaining performed at 4°C overnight with anti-HbF fluorescein isothiocyanate (FITC) conjugated antibody (Bethyl Laboratories Inc., TX). Cell nuclei were stained with mounting medium containing 4′,6-diamidino-2-phenylindole (DAPI; Santa Cruz Biotechnology, CA). Primary cells were photographed with an Olympus BX 51 phase contrast epifluorescent microscope equipped with Hoffman Modulation optics. Phase-contrast images were recorded with a CCD camera (1/100 sec exposure) and fluorescence images were photographed through 485/520 nm emission filter. The percent of HbF positive cells was calculated by dividing the number of FITC positive cells by total cells (DAPI positive).
# Figure 3 JMA33 and JMA26 induce HbF in primary erythroid cells. (a) Day 11 erythroid progenitors were treated for 48 hr with the controls agents and the FK228 analogues shown and then analyzed by RT-qPCR. Untreated cells (UT) were used as a control and normalized to one. Data were calculated as the means ± SEM. […] The images generated were used to count 500 DAPI positive cells and the %FITC positive cells were calculated accordingly.
substance,measurement,setting,value
FK228,cell toxicity,HeLa cells,marked cell toxicity
same,HDAC inhibition,[1],about 85%
same,induction of γ-globin transcription at the mRNA level,[2],≤ 3.2 fold
same,increase in HbF-positive cells,[3],3.5 fold

# Source: article PMC3359661, “FK228 Analogues Induce Fetal Hemoglobin in Human Erythroid Progenitors” (Anemia, 2012)
